We go through 21 compounds from PubChem BioAssay AID328 (DTP/NCI, 2004).

Where “and” joins values, the source holds several entries; their conditions need not be identical. Equal values may be shown once. Inconclusive results and toxic doses are left out.

In the test the test system is BDF1 mice, P388 leukemia ip, median survival T/C. The test is described as follows: NCI In Vivo Anticancer Drug Screen. Data for tumor model P388 Leukemia (intraperitoneal) in B6D2F1 (BDF1) mice. Conditions: endpoint: median survival time, higher = longer survival. Put shortly:
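Compound-treated tumour-bearing mice were compared with vehicle-treated controls. Survival was recorded, and the value is the treated-group measurement divided by the control-group measurement (T/C).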

Where [1] appears, read: dose: 25.0 mg/kg/injection, schedule: Q04DX003 (ip), vehicle: saline with Tween-80.
Where [2] appears, read: dose: 50.0 mg/kg/injection, schedule: Q04DX003 (ip), vehicle: saline with Tween-80.
Where [3] appears, read: dose: 100.0 mg/kg/injection, schedule: Q01DX009 (ip), vehicle: saline with Tween-80.
Where [4] appears, read: dose: 100.0 mg/kg/injection, schedule: Q01DX009 (ip), vehicle: saline.
[5] abbreviates: dose: 100.0 mg/kg/injection, schedule: Q04DX003 (ip), vehicle: saline with Tween-80.
[6] abbreviates: dose: 200.0 mg/kg/injection, schedule: Q01DX009 (ip), vehicle: saline with Tween-80.
Setting [7] is: dose: 200.0 mg/kg/injection, schedule: Q04DX003 (ip), vehicle: saline with Tween-80.
[8] abbreviates: dose: 400.0 mg/kg/injection, schedule: Q01DX009 (ip), vehicle: saline with Tween-80.
[9] abbreviates: dose: 400.0 mg/kg/injection, schedule: Q04DX003 (ip), vehicle: saline with Tween-80.
Where [10] appears, read: dose: 50.0 mg/kg/injection, schedule: Q01DX009 (ip), vehicle: saline with Tween-80.
Where [11] appears, read: dose: 12.5 mg/kg/injection, schedule: Q01DX009 (ip), vehicle: saline.
Where [12] appears, read: dose: 25.0 mg/kg/injection, schedule: Q01DX009 (ip), vehicle: saline.
Where [13] appears, read: dose: 50.0 mg/kg/injection, schedule: Q01DX009 (ip), vehicle: saline.
The mark [14] stands for this setting: dose: 100.0 mg/kg/injection, schedule: Q04DX003 (ip), vehicle: saline.
Where [15] appears, read: dose: 200.0 mg/kg/injection, schedule: Q04DX003 (ip), vehicle: saline.

For the compound `CCCCCCCCCC(O)CCCCC` (stereo not given), the T/C is, setting by setting: (dose: 20.0 mg/kg/injection, schedule: Q01DX009 (ip), vehicle: saline with Tween-80) 100 % of control; under setting [1], 95 % of control; (dose: 45.0 mg/kg/injection, schedule: Q01DX009 (ip), vehicle: saline with Tween-80) 100 % of control; under setting [2], 108 % of control; (dose: 90.0 mg/kg/injection, schedule: Q01DX009 (ip), vehicle: saline with Tween-80) 104 % of control; under setting [3], 113 % of control. Also, the T/C is 170 % of control under setting [4]; 100 % of control under setting [5]; 95 % of control (dose: 135.0 mg/kg/injection, schedule: Q01DX009 (ip), vehicle: saline with Tween-80); 108 % of control under setting [6]; 95 % of control under setting [7]; 113 % of control under setting [8]. For the same compound, the T/C under setting [9] was 100 % of control.

For the compound `CC(=O)O[C@]1(C(C)=O)CC[C@H]2[C@@H]3C[C@H](Cl)C4=CC(=O)CC[C@]4(C)[C@H]3CC[C@@]21C`, the T/C by setting is: under setting [10], 113 % of control; under setting [3], 109 % of control; under setting [5], 108 % of control; under setting [6], 100 % of control; under setting [7], 100 % of control.

Turning to `O=[N+]([O-])c1ccc(S(=O)(=O)Nc2ccccc2-c2ccccc2)cc1`, the T/C is 96 % of control under setting [5], 96 % of control under setting [7] and 100 % of control under setting [9].

As to `N#CCCN(C(=S)Nc1ccc(Cl)c(Cl)c1)C1CCCCC1`, the T/C was 98 % of control and 117 % of control under setting [10]; 100 % of control and 119 % of control under setting [3]; 103 % of control and 119 % of control under setting [6]; 106 % of control under setting [8].

With `CC(=O)OCC(OC(C)=O)C(OC(C)=O)C(C#N)OC(C)=O` (stereo not given), the T/C by setting is: under setting [2], 95 % of control; under setting [5], 95 % of control.

For the compound `CCCCN(C(C)(C)C(SSSC(c1ccc(Cl)cc1)C(C)(C)N(CCCC)S(C)(=O)=O)c1ccc(Cl)cc1)S(C)(=O)=O` (stereo not given), the T/C was 100 % of control under setting [1] and 100 % of control under setting [2].

`Nc1nnc2cc(F)ccc2n1`: the T/C (dose: 50.0 mg/kg/injection, schedule: Q01DX009 (ip), vehicle: Klucel (hydroxypropylcellulose) (HPC)) was 100 % of control; the T/C (dose: 100.0 mg/kg/injection, schedule: Q01DX009 (ip), vehicle: Klucel (hydroxypropylcellulose) (HPC)) is 112 % of control; the T/C (dose: 200.0 mg/kg/injection, schedule: Q01DX009 (ip), vehicle: Klucel (hydroxypropylcellulose) (HPC)) was 102 % of control.

Take `CSc1ncc2n1C=CN(C(=O)c1ccc([N+](=O)[O-])cc1)C2O` (stereo not given): the T/C under setting [11] was 99 % of control; the T/C under setting [12] was 87 % of control; the T/C (dose: 25.0 mg/kg/injection, schedule: Q04DX003 (ip), vehicle: saline) was 107 % of control; the T/C under setting [13] was 92 % of control; the T/C (dose: 50.0 mg/kg/injection, schedule: Q04DX003 (ip), vehicle: saline) was 94 % of control; the T/C under setting [14] was 93 % of control. Further, the T/C under setting [15] is 90 % of control.

For the compound `CCCc1cc(CCC)nc(NNc2nc(CCC)cc(CCC)n2)n1`, the T/C is 86 % of control under setting [3], 100 % of control under setting [6] and 100 % of control under setting [8].

With `Cc1nnc(NS(=O)(=O)c2ccc(N=Nc3nc4[nH]c(N)nc(=S)c4[nH]3)cc2)s1`, the T/C (dose: 5.5 mg/kg/injection, schedule: Q01DX009 (ip), vehicle: saline) was 114 % of control; the T/C (dose: 12.5 mg/kg/injection, schedule: Q04DX003 (ip), vehicle: Klucel (hydroxypropylcellulose) (HPC)) was 95 % of control; the T/C (dose: 25.0 mg/kg/injection, schedule: Q04DX003 (ip), vehicle: Klucel (hydroxypropylcellulose) (HPC)) was 104 % of control; the T/C (dose: 50.0 mg/kg/injection, schedule: Q04DX003 (ip), vehicle: Klucel (hydroxypropylcellulose) (HPC)) was 100 % of control; the T/C (dose: 80.0 mg/kg/injection, schedule: Q01DX009 (ip), vehicle: Klucel (hydroxypropylcellulose) (HPC)) was 155 % of control; the T/C (dose: 170.0 mg/kg/injection, schedule: Q01DX009 (ip), vehicle: saline) is 172 % of control.

With `COc1cccc(OC)c1C1(O)c2c(OC)cccc2Oc2cccc(OC)c21`, the T/C is, setting by setting: (dose: 100.0 mg/kg/injection, schedule: Q01DX001 (ip), vehicle: Klucel (hydroxypropylcellulose) (HPC)) 95 % of control; (dose: 200.0 mg/kg/injection, schedule: Q01DX001 (ip), vehicle: Klucel (hydroxypropylcellulose) (HPC)) 100 % of control; (dose: 400.0 mg/kg/injection, schedule: Q01DX001 (ip), vehicle: Klucel (hydroxypropylcellulose) (HPC)) 104 % of control.

As for `COC(=O)c1ccc(SCCCN2CCOCC2)cc1`, the T/C is, setting by setting: under setting [14], 90 % of control; under setting [15], 113 % of control.

`CC(=N\O)/C(C)=N/O.CC(=N\O)/C(C)=N/O.[Cl][Co][Cl]`: the T/C is 90 % of control and 99 % of control (dose: 6.25 mg/kg/injection, schedule: Q01DX009 (ip), vehicle: saline); 100 % of control under setting [11]; 99 % of control under setting [12]; 94 % of control and 110 % of control under setting [13]; 91 % of control and 110 % of control under setting [4]; 100 % of control (dose: 200.0 mg/kg/injection, schedule: Q01DX009 (ip), vehicle: saline).

For `CC1(C)OC1CC1=CC(=O)C=CC1=O` (stereo not given), the T/C is, setting by setting: (dose: 25.0 mg/kg/injection, schedule: Q01DX009 (ip), vehicle: saline with Tween-80) 108 % of control; under setting [10], 103 % of control; under setting [3], 100 % of control; under setting [6], 117 % of control.

As for `CC(C)(C)NC(=S)Nc1ccc2c(c1)nc(-c1ccccc1)c1cc(NC(=S)NC(C)(C)C)ccc12`, the T/C under setting [5] is 111 % of control and the T/C under setting [7] was 100 % of control.

Consider `CCN=C(N)N=C(N)N`, for which, under “dose: 100.0 mg/kg/injection, schedule: Q01DX001 (ip), vehicle: saline”, the T/C is 102 % of control.

For the compound `CCCCCCCCC1SC1CCCCCCCC(=O)OCCN(C)C(=O)CCCCCCCC1SC1CCCCCCCC` (stereo not given), the T/C runs as follows: (dose: 100.0 mg/kg/injection, schedule: Q04DX003 (ip), vehicle: other) 100 % of control; (dose: 200.0 mg/kg/injection, schedule: Q04DX003 (ip), vehicle: other) 100 % of control; (dose: 400.0 mg/kg/injection, schedule: Q04DX003 (ip), vehicle: other) 100 % of control.

On to `Cc1cnn(O)c(=NCCCl)n1`, for which the T/C was 99 % of control (dose: 100.0 mg/kg/injection, schedule: Q04DX002 (ip), vehicle: saline with Tween-80); 99 % of control (dose: 200.0 mg/kg/injection, schedule: Q04DX002 (ip), vehicle: saline with Tween-80); 99 % of control (dose: 400.0 mg/kg/injection, schedule: Q04DX002 (ip), vehicle: saline with Tween-80).

`CCCCCn1c(Cl)c(/C=N\Nc2ccc([N+](=O)[O-])cc2[N+](=O)[O-])c2ccccc21`: the T/C was 88 % of control (dose: 100.0 mg/kg/injection, schedule: Q04DX002 (ip), vehicle: Klucel (hydroxypropylcellulose) (HPC)); 89 % of control (dose: 200.0 mg/kg/injection, schedule: Q04DX002 (ip), vehicle: Klucel (hydroxypropylcellulose) (HPC)); 90 % of control (dose: 400.0 mg/kg/injection, schedule: Q04DX002 (ip), vehicle: Klucel (hydroxypropylcellulose) (HPC)).

As to `CC1CC/C(=C\c2ccccc2)C(=O)/C1=C/c1ccccc1` (stereo not given), the T/C reads like this: (dose: 100.0 mg/kg/injection, schedule: Q04DX003 (ip), vehicle: DMSO) 112 % of control; (dose: 200.0 mg/kg/injection, schedule: Q04DX003 (ip), vehicle: DMSO) 87 % of control; (dose: 400.0 mg/kg/injection, schedule: Q04DX003 (ip), vehicle: DMSO) 87 % of control.

As for `Cc1cc(O)c2c(c1O)C(=O)C13C(=C2O)C(=O)C2C(O)C1C1C(O)C3C(=O)C3=C(O)c4c(O)cc(C)c(O)c4C(=O)C321` (stereo not given), the T/C is, setting by setting: (dose: 2.6 mg/kg/injection, schedule: Q04DX003 (ip), vehicle: saline with Tween-80) 113 % of control; (dose: 4.0 mg/kg/injection, schedule: Q04DX003 (ip), vehicle: saline with Tween-80) 118 % of control.
